# Earlier results, collected in US20210307321A1, “CAPSULE SUSPENSIONS WITH AGROCHEMICAL ACTIVE INGREDIENTS” (priority 2018, published 2021).
smiles,measurement,value
"O=C(Nc1ccc(F)cc1F)c1cccnc1Oc1cccc(C(F)(F)F)c1 [Diflufenican, 2′,4′-Difluoro-2-(a,a,a-trifluoro-m-tolyloxy)nicotinanilide]",solubility in non-water miscible solvents,very low solubility
